We go through 2 compounds from publication PMC3639963, “A New Class of Small Molecule Inhibitor of BMP Signaling” (PLoS ONE, 2013).

A word on the IC50: it is the concentration at which inhibition is half-maximal.

One test deals with T1, ALK3 (Homo sapiens, UniProt P36894).
T1 construct: purchased Nanosyn (enzymatic panel); SGC in-house recombinant human kinases (DSF panel); Invitrogen (ALK1-6)
Description: In vitro kinase assay ([γ-32P]ATP). The class given is biochemical. The following applies: at the Km value of ATP; triplicate. The protocol: (§1) Inhibitors were added at concentrations between 0 and 10 µM in kinase reaction buffer and tested in triplicate.

A further test has as its target T2, ALK6 (Homo sapiens, UniProt O00238).
T2 construct: purchased Nanosyn (enzymatic panel); SGC in-house recombinant human kinases (DSF panel); Invitrogen (ALK1-6)
Description: In vitro kinase assay ([γ-32P]ATP). The following applies: at the Km value of ATP; triplicate. It counts as biochemical. The protocol:
as §1

A further test addresses T3, ALK4 (Homo sapiens, UniProt P36896).
T3 construct: purchased Invitrogen
T3 sequence (P36896 24-505): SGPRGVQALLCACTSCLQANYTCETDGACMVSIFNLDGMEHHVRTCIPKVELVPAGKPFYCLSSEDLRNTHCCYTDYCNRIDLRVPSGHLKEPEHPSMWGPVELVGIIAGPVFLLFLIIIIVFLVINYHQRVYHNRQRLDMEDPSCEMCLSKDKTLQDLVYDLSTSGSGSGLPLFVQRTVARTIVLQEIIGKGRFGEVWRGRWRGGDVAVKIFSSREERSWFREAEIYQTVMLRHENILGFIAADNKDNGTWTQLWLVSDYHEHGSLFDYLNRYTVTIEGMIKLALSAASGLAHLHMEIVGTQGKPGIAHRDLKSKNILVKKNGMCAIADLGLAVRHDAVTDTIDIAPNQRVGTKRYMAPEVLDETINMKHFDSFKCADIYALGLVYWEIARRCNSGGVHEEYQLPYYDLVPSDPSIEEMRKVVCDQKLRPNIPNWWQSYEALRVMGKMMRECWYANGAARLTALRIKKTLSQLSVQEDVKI
Nature of the test: In vitro kinase assay ([γ-32P]ATP). The following applies: at the Km value of ATP; triplicate. It counts as biochemical. As for the experimental part:
as §1

For test [1], the system named is Tg(BRE:mRFP) transgenic zebrafish embryos. Nature of the test: Dorsalization of zebrafish embryos. It counts as in vivo. The following applies: treated from the 8- to 16-cell stage, scored at 26 hours. As for the experimental part:
The zebrafish colony was maintained as described and embryos were raised at 28.5°C. The Tg(BRE:mRFP) transgenic line (also called BRE-mRFP) has been described previously and expresses mRFP in response to BMP signaling. […] Inhibitor stocks were diluted in DMSO and then further diluted in fish water to give the required inhibitor concentrations. To minimize the amount of inhibitors used, experiments were performed in 24-well plates with approximately 20 embryos per well in a volume of 1 mL. The chemical treatment was applied by immersing 8- to 16-cell stage Tg(BRE:mRFP) embryos (dorsalization experiment) or 12 hours old […]) embryos (ISV experiment) in the fish water supplemented with DMSO or the chemical inhibitors. For the ISV experiment, embryos were manually dechorionated after bud stage before treatment. Embryos were scored and photographed at 26 or 48 hours.

Another test relates to C2C12 cells. The following applies: cited from earlier work.
The next test concerns ALK2. Further details: method as in PMID 19914855. The following applies: read-out: reported in vitro IC50 (enzymatic assays); cited from earlier work.

T1 sequence (P36894 24-532): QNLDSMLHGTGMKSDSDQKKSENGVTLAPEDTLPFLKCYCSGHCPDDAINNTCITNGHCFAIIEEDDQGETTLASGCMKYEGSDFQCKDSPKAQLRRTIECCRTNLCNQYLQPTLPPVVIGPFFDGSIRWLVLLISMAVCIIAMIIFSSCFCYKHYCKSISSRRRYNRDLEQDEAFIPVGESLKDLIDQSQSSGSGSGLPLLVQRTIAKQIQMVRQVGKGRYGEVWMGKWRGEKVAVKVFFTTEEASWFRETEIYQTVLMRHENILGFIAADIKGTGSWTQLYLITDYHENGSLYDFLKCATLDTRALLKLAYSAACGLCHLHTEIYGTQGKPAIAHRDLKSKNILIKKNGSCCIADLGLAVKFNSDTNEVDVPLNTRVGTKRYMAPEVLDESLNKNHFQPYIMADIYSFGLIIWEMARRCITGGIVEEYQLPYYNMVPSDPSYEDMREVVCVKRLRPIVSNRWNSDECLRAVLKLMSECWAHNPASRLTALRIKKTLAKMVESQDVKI
T2 sequence (O00238 14-502): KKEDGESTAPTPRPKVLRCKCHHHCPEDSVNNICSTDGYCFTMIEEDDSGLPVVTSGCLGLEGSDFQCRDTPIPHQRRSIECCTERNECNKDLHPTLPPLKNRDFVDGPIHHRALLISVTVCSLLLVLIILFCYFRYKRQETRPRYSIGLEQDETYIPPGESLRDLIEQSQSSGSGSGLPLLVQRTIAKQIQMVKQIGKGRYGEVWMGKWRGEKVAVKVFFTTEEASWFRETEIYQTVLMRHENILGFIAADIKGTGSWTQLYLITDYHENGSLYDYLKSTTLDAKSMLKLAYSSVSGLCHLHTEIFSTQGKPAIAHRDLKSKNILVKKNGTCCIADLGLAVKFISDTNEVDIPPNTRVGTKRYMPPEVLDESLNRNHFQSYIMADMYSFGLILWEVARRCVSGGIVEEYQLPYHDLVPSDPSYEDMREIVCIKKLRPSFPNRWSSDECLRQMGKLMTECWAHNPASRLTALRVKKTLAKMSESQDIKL

On to `COc1cc(-c2cc(-c3cccc(O)c3)cnc2N)cc(OC)c1OC` [K02288, 3-[6-amino-5-(3,4,5-trimethoxy-phenyl)-pyridin-3-yl]-phenol], for which the figures for the half-maximal inhibitory concentration (IC50) on ALK3, at ALK6 and against ALK4 were 0.0344 µM, 0.0064 µM and 0.302 µM, respectively. Moreover, the “concentration giving severely dorsalized phenotype” value in test [1] lay within 8 to 10 µM.

In the case of `c1cc(-c2cnn3cc(-c4ccc(OCCN5CCCCC5)cc4)cnc23)ccn1` [Dorsomorphin], the IC50 is roughly 0.5 µM in the test with C2C12 cells and 0.05 µM with ALK2.
